{"source": "paper PMC8131842", "about": "“Therapeutic Potential of Vasoactive Intestinal Peptide and its Derivative Stearyl-Norleucine-VIP in Inflammation-Induced Osteolysis” (Frontiers in Pharmacology, 2021)", "key": {"[1]": {"system": "M-CSF + RANKL treated pre-osteoclasts", "experiment": "Osteoclastogenesis assay, direct effect in the absence of inflammation (TRAP staining)", "format": "cell-based, mouse", "details": "10^-6 M, no inflammation, TRAP-positive multinucleated osteoclasts after 5 days, n=5, p<0.01", "protocol": "Osteoclastogenesis assay. Preosteoclasts, prepared like the BMDMs, were plated in 96-well plates (7,000 cells per well, for TRAP staining, see below) or in 6-well plates (200,000 cells per well, for RNA) in standard medium supplemented with 20 ng/ml M-CSF and 50 ng/ml RANKL (R&D Systems, Minneapolis, MN, United States). After 48 h, the medium was replaced by the conditioned medium of BMDM, supplemented with RANKL and M-CSF. Where indicated, 10^−6 M SNV or VIP were added. […], cells were stained using a TRAP kit (Sigma-Aldrich, St. Louis, MO, United States), and multinucleated (>3 nuclei) TRAP-positive cells were defined as osteoclasts. Images were acquired at an original magnification of ×4 (Evos FLC, Life Technologies, MS, United States). The number of osteoclasts and the total osteoclast area were measured using ImageJ software (National Institutes of Health, Bethesda, MD, United States).\nFIGURE 3 Direct effect of VIP and SNV on osteoclastogenesis. (A) VPAC1 and (B) VPAC2 expression in M-CSF treated bone marrow-derived macrophages (Day 0) and M-CSF + RANKL treated pre-osteoclasts (Day 2) using RT-qPCR. […] (C-E) Osteoclastogenesis in the presence of 10^-6M VIP, SNV or vehicle only (control) performed in 96-well plates; TRAP-positive multinucleated osteoclasts were evaluated after 5 days of differentiation. […]"}, "[2]": {"system": "LPS-stimulated primary murine macrophages (IL1β, IL6 and TNFα expression)", "experiment": "Pro-inflammatory cytokine mRNA expression (RT-qPCR) in LPS-stimulated macrophage cultures", "format": "cell-based, mouse", "details": "10^−6 M, added 1 h before LPS 1 μg/ml, 24 h, bone marrow-derived macrophages", "protocol": "Cell culture. Primary bone marrow-derived macrophages (BMDMs) were isolated from the femora and tibiae of 10-week-old C57BL/6J mice (Envigo, Israel), as previously described ([Hiram-Bab et al., 2015]). Briefly, cells were cultured overnight at 37°C in a humidified atmosphere with 5% CO2 in our “standard medium” consisting of alpha-modified Eagle’s medium (αMEM, Life Science Technology, NY, United States) and 10% fetal bovine serum (FBS, Rhenium, Ltd., Modi’in, Israel). After 24 h, the non-adherent fraction was cultured in 10-cm non-culture-treated dishes containing standard medium and 100 ng/ml macrophage colony stimulating factor (M-CSF) ([Takeshita et al., 2000]). The resulting adherent BMDMs were collected after 3 days for the specific assays described below.\nRNA isolation, and RT-qPCR. Following a 24 h incubation with Ti particles (or LPS/vehicle only/SNV/VIP in addition to Ti particles), macrophages were washed with sterile PBS, and RNA was extracted using Tri-RNA Reagent (Favorgen Biotech Corp, Kaohsiung, Taiwan). The 260/280 absorbance ratio was measured to verify the RNA purity and concentration. cDNA was produced using a high-capacity cDNA reverse transcription kit (Invitrogen, Grand Island, NY, United States), and real-time PCR was performed using Kapa SYBR Fast qPCR (Kapa Biosystems, Wilmington, MA, United States) on a StepOne real-time PCR machine (Applied Biosystems, Grand Island, NY, United States).\nThe following primers were used: F-[…] and R-[…] for mouse IL1β; F-[…] and R-[…] for mouse IL6; F-[…] and R-[…] for mouse TNFα; F-CCGTAACTGCACTGAAGA-AG and R-[…] for VPAC-1; F-CAGCAGACCAGGAAACAT-AA and R-GCCACACGCATCTATGAA for VPAC-2 and F-[…] and R-[…] for Gapdh. The reaction was subjected to 40 cycles of amplification using the following program: 95°C for 20 s, 60°C for 20 s, and 72°C for 25 s. The relative mRNA expression levels of the selected genes were normalized to the level of Gapdh.\nIL1β, IL6 and TNFα are the main mediators of Ti particle-mediated inflammation and osteolysis ([Eger et al., 2017]; [Eger et al., 2018]). […]"}, "Guinea pigs": {"system": "Guinea pigs", "experiment": "Study 003 skin sensitization: adjuvant and patch test", "format": "in vivo, guinea pig", "details": "SNV 7 mg/animal (1000X)", "protocol": "Toxicology. We performed toxicology studies for SNV that consisted of acute subcutaneous, intravenous and oral toxicity in rats, acute dermal toxicity in rabbits, skin sensitization using adjuvant and patch test in guinea pigs, and single and repeated (for 13 weeks) dose toxicity studies in rats. The latter was a 90-days repeated dose toxicity study, consisting of SNV once a day at three different doses to the penis and vagina of male and female rats, respectively. The compound was tested for the treatment of erectile dysfunction. The active dose (7 µg SNV) was chosen as the lowest dose for the study. The highest dosage group in the repeated dose toxicity study received 3,500 µg ([Gozes et al., 1994]). For study 001 (parts 1 through 3), the 1× dose consisted of 0.5 mg SNV dissolved in 7.1 ml vehicle (3.55 ml 10% Sefsol [glycerin monocaprylate] + 3.55 ml isopropanol) and 100µl/animal were administered; the 1000X dose consisted of 91 mg SNV dissolved in 1.3 ml vehicle (0.65 ml 10% Sefsol +0.65 ml isopropanol) and 100µl/animal were administered. For studies 002 through 004, the indicated doses of SNV (Table 1) were dissolved in 0.25 ml 10% Sefsol +0.25 ml 40% isopropanol (vehicle). The methodology for each of the toxicology studies is detailed in Table 1."}}, "data": [{"substance": "Stearyl–HSDAVFTDNYTRLRKQ-Nle-AVKKYLNSILN-NH2 [SNV, Stearyl-norleucine-VIP, lipophilic VIP derivative with N-terminal stearic acid and norleucine in place of methionine at position 17]", "values": [{"measurement": "Osteoclast differentiation (osteoclast number and total area)", "setting": "[1]", "result": "comparable inhibitory effect"}, {"measurement": "Effect on TNFα expression vs LPS", "setting": "[2]; n=5", "result": "no effect"}, {"measurement": "Reduction of IL1β expression levels vs LPS", "setting": "[2]; n=5, p < 0.05", "result": 35, "unit": "%"}, {"measurement": "Change of IL6 expression vs LPS", "setting": "[2]; n=5, plus = increase", "result": "no effect"}, {"measurement": "Skin sensitization, conclusion", "setting": "Guinea pigs; adjuvant and patch test", "result": "The study was designed to assess the degree of skin sensitization resulting from intradermal Freund’s complete adjuvant and patch application of SNV. The study showed that both SNV and vehicle alone have no skin sensitization properties"}, {"measurement": "Mortality", "setting": "Guinea pigs; adjuvant and patch test, daily applications for 3 days", "result": "None"}, {"measurement": "Skin reactions", "setting": "Guinea pigs; intradermal Freund's complete adjuvant and patch application, daily applications for 3 days, 3 males + 3 females per group", "result": "only slight erythema and edema within the application site"}]}]}
